One compound from patent US8809390B2, “Compound accelerating secretion of human-derived anti-microbial peptide, method for preparing same, and composition having same as active ingredient” (Neopharm Co., Ltd., priority 2010, dated 2014) can be followed below.

Data set [1] deals with human β-defensin-2 (hBD-2). Briefly: Promotion of secretion/expression of β-defensin-2 in cultured human keratinocytes (RT-PCR, real-time PCR). In kind it is cell-based. Particulars: cultured human keratinocyte (HaCaT), 24 hours, with 1.7 mM calcium chloride; FIG. 1. As to the method:
(§1) A medium containing 1% penicillin/streptomycin but not serum was used to culture human keratinocyte (HaCaT). The human keratinocyte was cultured in a 5% CO2 incubator at 37° C. The cells were seeded in each well of a 6-well plate at 3×10^5 cells/well, and then cultured for 48 hours. 1.7 mM calcium chloride and the new material synthesized from Example 1 were added thereto, and the cells were allowed to culture for 24 hours.
(§2) For assessment, at least one untreated control and at least one positive control were used together. 2.5 ng/mL of lipopolysaccharides (LPS), which is known to promote expression of hBD-2 and LL-37, was used as the positive control, and was allowed to react. After the reaction was completed, a supernatant was collected, and then the cells were washed with phosphate buffer saline (PBS) and collected by using a trypsin-EDTA solution, and stored in a tube. 1 ml of a triazole reagent was added to extract mRNA. […] The diluted RNA was analyzed at a wavelength between 260 nm and 280 nm, and quantitated. […]
(§3) 12.5 μl of PCR premix, 2 μl of primer sense (10 uM), 2 μl of primer antisense (10 uM), 1.5 μl of cDNA, and 7 μl of distilled water were inputted, and then PCR was carried out. […] The sample was migrated and then read out under UV in a dark room, and digitally photographed. Photos of the gel were analyzed by image processing software which quantifies the band intensities. […]

For another data set, the system named is LL-37. Briefly: Promotion of secretion/expression of LL-37 in cultured human keratinocytes (RT-PCR, real-time PCR). As to conditions: cultured human keratinocyte (HaCaT), 24 hours, with 1.7 mM calcium chloride; FIG. 1. In kind it is cell-based. The protocol: as §1, §2, §3
For orientation: In qPCR the cycle at which signal appears reflects the starting amount.

Data set [2] has as its system nude mice. As to the kind of experiment: Recovery of skin barrier damage (TEWL) in nude mice with acute skin barrier disruption. Type of data set: in vivo, mouse. Particulars: D-Squame acute barrier damage, topical coating, TEWL at 0 h, 3 h, 6 h, 24 h, FIG. 2. The protocol: Skin barriers of nude mice were acutely damaged, and then effects of the new material represented in Example on recovery of acute skin barriers were assessed. D-Squame was used to induce skin barrier damage to left and right back regions of 6-8 week aged nude mice. Here, all the experimental groups were maintained to have no difference in trans epidermal water loss (TEWL) through measurement of the trans epidermal water loss (TEWL), and then vehicle (PEG:EtOH=7:3) and the new material represented in the example were coated thereon. The trans epidermal water loss (TEWL) was measured at the time of 0 h, 3 h, 6 h, and 24 h to confirm recovery of the skin barrier, and skin biopsies were conducted at the respective time, to thereby implement histological examination and other examinations.

The test system of data set [3] is nude mice. As to the kind of experiment: Efficacy assessment on oxazolone animal model with atopic dermatitis (skin thickness). Type of data set: in vivo, mouse. An excerpt:
(§4) An animal model with atopic dermatitis was constructed by coating the abdomens of 6-8 week aged nude mice with 5% oxazolone solution one time for percutaneous sensitization; after week, with 0.1% oxazolone solution every other day, six times, and 1% oxazolone solution every other day, four times. It has been reported that in the case of the animal model with atopic dermatitis using oxazolone, antimicrobial peptides were reduced in the skin (Man M-Q, Hatano Y, Lee S H, et al. Characterization of a hepten-induced, murine model with multiple features of atopic dermatitis: structural, immunologic, and biochemical changes following single versus multiple oxazolone challenges. J Invest Dermatol (2008) 128, 79-86). The skin of the animal model with atopic dermatitis constructed as above was coated with vehicle (PEG:EtOH=7:3) and Compound 1a of Example 1 diluted with the vehicle at a concentration of 0.1% once in the morning and in the afternoon for a total of four days. On the last day, thickness of the skin was measured. Corticosteroid based drug, Dexamethasone, which is an effective anti-inflammatory agent, was used as a positive control.

The subject of a further data set is CRAMP. As to the kind of experiment: Expression of antimicrobial peptide (CRAMP) in the skin of the atopic dermatitis animal model (immunohistochemistry). Type of data set: in vivo, mouse. As to conditions: animal model with atopic dermatitis, coated for four days; FIG. 4.
From the text: as §4, with “Corticosteroid based drug, Dexamethasone, which is an effective anti-inflammatory agent, was used as a positive control.” left out
The new compound synthesized according to Example 1 was coated for four days, and then skin tissue biopsy was conducted to form a paraffin block. […] After the reaction was completed, expression of CRAMP in the corneum of the skin was measured through a microscope. […]

With `CCCCCC(=O)N[C@@H](Cc1ccc(O)cc1)C(=O)OC` [Chemical Formula (Ia), (S)-Methyl 2-(hexanamido)-3-(4-hydroxyphenyl)propanoate], the melting point (commonly the temperature, or range, at which the solid turns liquid) stood at 96 °C. In addition, the “secretion of β-defensin-2” value in data set [1] is on record as “promotes secretion”. For the same compound, in the data set with LL-37, the “secretion of LL-37” value is listed as “promotes secretion”. In addition, the skin barrier recovery result in the data set on nude mice [2] is “significantly promoted”. In addition, the skin barrier function entry in the data set on nude mice [3] (animal model with atopic dermatitis, topical application) is reported as “improved”. For the same compound, the anti-inflammatory efficacy entry in the data set with nude mice [3] (oxazolone atopic dermatitis nude mice, 0.1% in PEG:EtOH=7:3, coated twice daily for four days, skin thickness, FIG. 3) is given as “improved”. Moreover, in the data set on CRAMP, the “expression of antimicrobial peptides in the skin” value is recorded as “increased”.
